We go through 16 compounds from ChEMBL document CHEMBL3758091, “Identification of N-(6-mercaptohexyl)-3-(4-pyridyl)-1H-pyrazole-5-carboxamide and its disulfide prodrug as potent histone deacetylase inhibitors with in vitro and in vivo anti-tumor efficacy” (Eur J Med Chem, 2016).

Data set [1] relates to MCF7. The data set can be described thus: cells. Format: functional. Conditions: Homo sapiens, MCF7, 96 h.
Description: Growth inhibition of human MCF7 cells after 96 hrs by MTT assay
The nature of data set [2]: cells. Type of data set: functional. To be noted: Homo sapiens, HCT-116, 96 h.
Description: Growth inhibition of human HCT116 cells after 96 hrs by MTT assay
Data set [3] relates to A549. The data set can be described thus: cells. Format: functional. Conditions: Homo sapiens, A549, 96 h.
Description: Growth inhibition of human A549 cells after 96 hrs by MTT assay
Data set [4] relates to MDA-MB-231. The data set can be described thus: cells. To be noted: Homo sapiens, MDA-MB-231, 96 h. Type of data set: functional.
Description: Growth inhibition of human MDA-MB-231 cells after 96 hrs by MTT assay
Data set [5] is described as follows: cells. Format: functional. To be noted: Homo sapiens, ASPC1, 96 h.
Description: Growth inhibition of human Aspc-1 cells after 96 hrs by MTT assay
Data set [6] can be described thus: cells. To be noted: Homo sapiens, PC-3, 96 h. Type of data set: functional.
Description: Growth inhibition of human PC3 cells after 96 hrs by MTT assay
Data set [7] deals with HT-29. The data set can be described thus: Growth inhibition of human HT-29 cells after 96 hrs by MTT assay. Format: functional. Conditions: Homo sapiens, HT-29, 96 h.
Data set [8] is described as follows: Cytotoxicity against HEK293 cells assessed as growth inhibition after 96 hrs by MTT assay. To be noted: human.
In data set [9] the target is Histone deacetylase. The data set can be described thus: Inhibition of HDAC in human HeLa cell nuclear extract using Boc-Lys(Ac)-AMC as substrate preincubated for 15 mins followed by substrate addition measured after 60 mins by fluorescence-based assay.
Data set [10] addresses Histone deacetylase 1 (Homo sapiens, UniProt Q13547). The data set can be described thus: Inhibition of recombinant human HDAC1 using Boc-Lys(Ac)-AMC as substrate preincubated for 15 mins followed by substrate addition measured after 60 mins by fluorescence-based assay.
Data set [11] concerns the target T1, Protein deacetylase HDAC6 (Homo sapiens, UniProt Q9UBN7).
T1 sequence (Q9UBN7 whole entry): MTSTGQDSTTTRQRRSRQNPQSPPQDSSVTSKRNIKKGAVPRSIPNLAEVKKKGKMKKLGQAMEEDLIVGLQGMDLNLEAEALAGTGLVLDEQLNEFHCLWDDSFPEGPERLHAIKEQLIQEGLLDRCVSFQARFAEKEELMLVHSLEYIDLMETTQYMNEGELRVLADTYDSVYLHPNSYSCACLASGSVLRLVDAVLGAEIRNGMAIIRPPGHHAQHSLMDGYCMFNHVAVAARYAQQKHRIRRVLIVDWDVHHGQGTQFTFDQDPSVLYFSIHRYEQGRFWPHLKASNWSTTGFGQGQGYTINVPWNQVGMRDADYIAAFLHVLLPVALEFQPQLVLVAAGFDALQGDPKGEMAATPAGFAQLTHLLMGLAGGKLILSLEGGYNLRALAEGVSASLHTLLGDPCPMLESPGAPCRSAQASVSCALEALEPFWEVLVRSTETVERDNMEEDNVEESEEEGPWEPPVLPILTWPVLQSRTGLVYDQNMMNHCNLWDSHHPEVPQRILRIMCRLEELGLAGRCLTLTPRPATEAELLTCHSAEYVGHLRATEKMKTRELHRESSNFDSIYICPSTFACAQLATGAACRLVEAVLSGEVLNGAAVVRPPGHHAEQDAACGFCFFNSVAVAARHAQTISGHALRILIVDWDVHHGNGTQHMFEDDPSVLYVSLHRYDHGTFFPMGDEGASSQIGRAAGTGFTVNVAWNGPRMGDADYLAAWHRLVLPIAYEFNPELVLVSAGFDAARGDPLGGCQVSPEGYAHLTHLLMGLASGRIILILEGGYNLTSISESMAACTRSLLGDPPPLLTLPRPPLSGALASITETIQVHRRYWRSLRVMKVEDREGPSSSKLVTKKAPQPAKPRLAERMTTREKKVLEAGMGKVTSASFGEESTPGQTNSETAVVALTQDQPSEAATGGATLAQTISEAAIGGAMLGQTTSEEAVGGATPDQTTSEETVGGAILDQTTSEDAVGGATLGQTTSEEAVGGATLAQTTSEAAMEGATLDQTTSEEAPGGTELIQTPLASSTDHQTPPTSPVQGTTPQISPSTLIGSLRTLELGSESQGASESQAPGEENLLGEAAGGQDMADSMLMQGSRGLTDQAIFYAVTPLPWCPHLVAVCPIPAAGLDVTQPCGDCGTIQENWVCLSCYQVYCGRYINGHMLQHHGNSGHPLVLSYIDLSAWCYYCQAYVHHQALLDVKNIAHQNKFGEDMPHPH
The data set can be described thus: Inhibition of recombinant human HDAC6 using Boc-Lys(Ac)-AMC as substrate preincubated for 15 mins followed by substrate addition measured after 60 mins by fluorescence-based assay.

Chain of Histone deacetylase 1 (Q13547 whole entry): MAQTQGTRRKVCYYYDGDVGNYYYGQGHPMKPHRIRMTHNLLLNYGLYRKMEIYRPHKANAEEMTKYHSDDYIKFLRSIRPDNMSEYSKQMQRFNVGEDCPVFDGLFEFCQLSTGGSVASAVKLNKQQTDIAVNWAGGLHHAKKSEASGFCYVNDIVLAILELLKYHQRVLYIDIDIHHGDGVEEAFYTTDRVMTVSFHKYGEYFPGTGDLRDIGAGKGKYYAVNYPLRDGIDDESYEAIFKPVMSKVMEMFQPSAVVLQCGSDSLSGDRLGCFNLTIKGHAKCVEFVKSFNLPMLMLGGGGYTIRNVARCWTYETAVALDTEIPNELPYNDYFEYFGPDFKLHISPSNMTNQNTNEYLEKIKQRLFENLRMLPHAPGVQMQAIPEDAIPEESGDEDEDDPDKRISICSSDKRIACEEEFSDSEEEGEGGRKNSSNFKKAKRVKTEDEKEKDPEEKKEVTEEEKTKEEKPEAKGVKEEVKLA

Regarding `O=C(CCCCCCS)Nc1ccccc1`, the GI50 in [1] and in data set [2] was over 50000 nM throughout.

With `CCC(=O)SCCCCCCNC(=O)c1cc(-c2ccncc2)n[nH]1`, the GI50 in data set [3], in data set [4], in data set [1], in [2], in [5] and in [6] was over 50000 nM in each case. The compound further showed a 50% growth inhibitory concentration (GI50) in data set [7] of over 50000 nM. Besides, in data set [8], the GI50 at 96 h is over 50000 nM.

On to `CCCCCCCC/C=C\CCCCCCCC(=O)SCCCCCCNC(=O)c1cc(-c2ccncc2)n[nH]1`, for which the GI50 in data set [3] was 33300 nM; in data set [4], over 50000 nM; in [1], 31000 nM; in data set [2], 39300 nM; in data set [5], over 50000 nM; in [6] it was over 50000 nM. The same compound came in with a GI50 in data set [7] of 23500 nM. Also, the 50% growth inhibitory concentration (GI50) at 96 h in [8] was over 50000 nM.

As for `O=C(NCCCCCCS)c1cc(-c2c[nH]c3ccccc23)n[nH]1`, the IC50 in [9] turned out to be 70 nM; in [10] it was 150 nM; in [11], 33 nM. The values for the GI50 in [1] and in data set [2] were 18200 nM and over 50000 nM, respectively.

With `O=C(NCCCCCCS)c1cc(-c2ccccn2)n[nH]1`, the IC50 in [9] was 33 nM; in data set [10], 124 nM; in data set [11], 27 nM. For the same compound, the GI50 in data set [1] was 26800 nM; in [2], over 50000 nM.

In data set [9], `O=C(NCCCCCCS)c1cc(-c2ccc(F)cc2)n[nH]1` displayed a concentration for half-maximal inhibition (IC50) of 245 nM. The concentration for 50% growth inhibition (GI50) in data set [1] and in data set [2] was over 50000 nM each time.

On to `COc1ccc(-c2cc(C(=O)NCCCCCCS)[nH]n2)cc1OC`, for which the half-inhibitory concentration (IC50) amounted to 56 nM in data set [9], 310 nM in data set [10] and 56 nM in data set [11]. For the same compound, the GI50 was 30800 nM in data set [1] and over 50000 nM in data set [2].

With `COc1ccc(-c2cc(C(=O)NCCCCCCS)[nH]n2)cc1`, the figures for the concentration for half-maximal inhibition (IC50) in [9] and in data set [11] were 150 nM and 167 nM, respectively. For the same compound, the GI50 was 14800 nM in [1] and over 50000 nM in [2].

Take `Cc1cc(C(=O)NCCCCCCS)[nH]n1`: in data set [9], the concentration for half-maximal inhibition (IC50) came to 715 nM. Moreover, the concentration for 50% growth inhibition (GI50) in data set [1] and in [2] was over 50000 nM each time.

`O=C(NCCCCCCS)c1ccn[nH]1`: the half-maximal inhibitory concentration (IC50) in data set [9] was found to be 81 nM; in data set [10], 526 nM; in data set [11] it was 92 nM. For the same compound, the GI50 in data set [1] and in data set [2] was over 50000 nM each time.

Regarding `O=C(NCCCCCCS)c1cc(C2CCCCC2)n[nH]1`, the figures for the IC50 in data set [9], in data set [10] and in [11] were 364 nM, 331 nM and 241 nM, respectively. For the same compound, the GI50 in data set [1] and in data set [2] was over 50000 nM in each case.

As to `O=C(NCCCCCCS)c1cc(-c2ccccc2)n[nH]1`, the concentration for half-maximal inhibition (IC50) in data set [9] stood at 23 nM; in data set [10] it was 98 nM; in data set [11], 30 nM. Moreover, the concentration for 50% growth inhibition (GI50) in data set [1] and in [2] was over 50000 nM each time.

As to `COc1cc(-c2cc(C(=O)NCCCCCCS)[nH]n2)cc(OC)c1OC`, the results for the IC50 in data set [9], in [10] and in data set [11] were 102 nM, 422 nM and 84 nM, respectively. Also, the 50% growth inhibitory concentration (GI50) in data set [1] and in data set [2] was over 50000 nM throughout.

Take `O=C(NCCCCCCS)c1cc(-c2ccc3ccccc3c2)n[nH]1`: the IC50 in data set [9] amounted to 102 nM; in [10], 133 nM; in data set [11], 235 nM. The GI50 in data set [1] and in [2] was over 50000 nM each time.

Regarding `O=C(NCCCCCCS)c1cc(-c2ccc(-c3ccccc3)cc2)n[nH]1`, the IC50 was determined as 43 nM in data set [9], 225 nM in [10] and 106 nM in [11]. Also, the 50% growth inhibitory concentration (GI50) in data set [1] and in data set [2] was over 50000 nM each time.

Turning to `O=C(NCCCCCCS)c1cc(-c2cccc3ccccc23)n[nH]1`, the IC50 in [9] worked out at 608 nM; in data set [10], 429 nM; in data set [11], 244 nM. In addition, the GI50 in data set [1] and in data set [2] was over 50000 nM throughout.
